Experiments:
A549 cells = experiment: Cell-based assay, IL-6 ELISA quantification in IL-1 beta stimulated A549 cells; details: 2 ng/ml human IL-1 beta overnight, class symbols, read-out: Celluar Data EC50
Protocol: The cell-based assays is based on IL-6 ELISA quantification. Briefly, A549 cells are cultured in DMEM with 10% FBS medium. When cells reach 80% confluence they are trypsin treated and seeded in 96-well plate at 2.5×10^4 cells/well. Then, 20 ul of compound serial dilutions (starting at 10 uM, 10 points) are added to the cell plate; incubate for 1 hour at 37 C and stimulated with 2 ng/ml human IL-1 beta 37 C overnight. The next day 100 ul of cell supernatant per well are analyzed on a Human IL-6 Quantikine ELISA kit from R&D Systems.

IRAK4 = IRAK4 (Homo sapiens (Human), UniProt Q9NWZ3); experiment: IRAK-4 biochemical kinase assay, AlphaScreen format; details: 1 nM IRAK4, 1.6 μM peptide, 10 μM ATP, 3.5 h at RT; class symbols
Chain of IRAK4 (Q9NWZ3 whole entry, species assumed): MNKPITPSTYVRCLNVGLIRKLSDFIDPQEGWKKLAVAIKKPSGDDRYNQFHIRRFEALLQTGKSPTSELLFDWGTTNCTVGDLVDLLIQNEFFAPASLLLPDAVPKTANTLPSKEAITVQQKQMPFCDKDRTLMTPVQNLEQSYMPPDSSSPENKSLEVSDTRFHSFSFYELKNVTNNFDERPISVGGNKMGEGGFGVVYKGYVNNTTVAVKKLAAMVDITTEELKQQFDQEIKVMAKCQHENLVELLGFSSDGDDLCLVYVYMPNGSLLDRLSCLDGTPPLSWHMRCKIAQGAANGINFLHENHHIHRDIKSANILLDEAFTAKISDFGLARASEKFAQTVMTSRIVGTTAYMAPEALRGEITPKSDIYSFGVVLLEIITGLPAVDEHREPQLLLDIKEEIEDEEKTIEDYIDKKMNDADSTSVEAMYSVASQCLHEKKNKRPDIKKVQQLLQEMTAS
In short: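 AlphaScreen read-out: streptavidin beads bind the biotinylated peptide and protein A beads bind the anti-phosphothreonine antibody, so energy transfer reports phosphorylation of the peptide. The kinase is human IRAK-4.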

Row | Compound | EC50 (A549 cells) | IC50 (IRAK4)
1 | CN(C)C(=O)Cn1cc2c(n1)C(=O)NCCOCCOc1cc(ccn1)-c1nc(cs1)C(=O)N2 [Example 166] | > 10 µM | < 1 µM
2 | CN1CCCc2cc(ccn2)-c2nc(cs2)C(=O)Nc2cn(C3CCOCC3)nc2C(=O)NCC1 [Example 169] | > 10 µM | < 0.1 µM
3 | CC(=O)N1CCCc2cc(ccn2)-c2nc(cs2)C(=O)Nc2cn(C3CCOCC3)nc2C(=O)NCC1 [Example 170] | < 1 µM | < 0.1 µM
4 | O=C1Nc2cn(C3CCOCC3)nc2C(=O)NC2CC(=O)N(CCCc3cc(ccn3)-c3nc1cs3)C2=O (stereo not drawn) [Example 200] | < 10 µM | < 0.1 µM
5 | Cn1cc2c(n1)C(=O)NCCOCCCCc1cc(ccn1)-c1nc(cs1)C(=O)N2 [Example 217] | < 10 µM | < 0.1 µM
6 | O=C1Nc2cn(C3CCOCC3)nc2C(=O)NCCOCCCCc2cc(ccn2)-c2nc1cs2 [Example 218] | < 10 µM | < 0.1 µM

Reference: US9617282B2, “Macrocyclic compounds as IRAK4 inhibitors for the treatment of inflammatory diseases” (BIOGEN MA INC., priority 2013, dated 2017)
